Laboratory results published in ChEMBL document CHEMBL4311992, “Discovery of 3-(((9H-purin-6-yl)amino)methyl)-4,6-dimethylpyridin-2(1H)-one derivatives as novel tubulin polymerization inhibitors for treatment of cancer” (Eur J Med Chem, 2019).
Active and inactive are the calls of the source. The rule behind the calls is not given here.

Key:
SW-620 = assay: Induction of apoptosis in human SW620 cells assessed as increase in cleaved PARP expression up to 200 nM measured after 48 hrs by Western blot analysis; format: functional, cell-based
[1] = target: Activin receptor type-2A (Homo sapiens) (UniProt P27037); assay: Inhibition of recombinant human ACTR2 (162 to end residues) assessed as residual activity at 10 uM using casein as substrate measured after 120 mins in presence of [gamma33P]ATP by scintillation counting method
[2] = target: Serine/threonine-protein kinase Sgk3 (Homo sapiens) (UniProt Q96BR1); assay: Inhibition of human SGK3 (119 to end residues) using GRPRTSSFAEGKK as substrate measured after 40 mins in presence of [gamma33P]ATP by scintillation counting method; parameters: scale not given: the % may be the effect or the level left
Sequence of Serine/threonine-protein kinase Sgk3 (Homo sapiens) (Q96BR1 whole entry): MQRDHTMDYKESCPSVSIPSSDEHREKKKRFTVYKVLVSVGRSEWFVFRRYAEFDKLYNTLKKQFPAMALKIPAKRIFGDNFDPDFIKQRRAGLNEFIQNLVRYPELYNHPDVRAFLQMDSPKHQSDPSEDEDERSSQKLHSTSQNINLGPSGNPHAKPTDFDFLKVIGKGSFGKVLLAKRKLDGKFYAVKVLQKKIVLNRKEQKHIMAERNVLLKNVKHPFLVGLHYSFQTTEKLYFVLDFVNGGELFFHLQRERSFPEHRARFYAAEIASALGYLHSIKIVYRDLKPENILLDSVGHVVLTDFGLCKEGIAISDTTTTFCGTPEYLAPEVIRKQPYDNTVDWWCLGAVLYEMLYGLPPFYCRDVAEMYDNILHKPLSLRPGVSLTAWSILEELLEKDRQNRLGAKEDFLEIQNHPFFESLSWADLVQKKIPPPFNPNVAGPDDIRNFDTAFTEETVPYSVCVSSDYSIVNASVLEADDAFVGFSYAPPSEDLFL

[3] = target: Non-receptor tyrosine-protein kinase TYK2 (Homo sapiens) (UniProt P29597); assay: Inhibition of human TYK2 (875 to end residues) using GGMEDIYFEFMGGKKK as substrate measured after 40 mins in presence of [gamma33P]ATP by scintillation counting method; parameters: scale not given: the % may be the effect or the level left
HCT-116 [4] = assay: Induction of apoptosis in human HCT116 cells assessed as increase in cleaved caspase3 expression up to 200 nM measured after 48 hrs by Western blot analysis; format: functional, cell-based
[5] = target: CDK17/Cyclin-Y (Homo sapiens) (UniProt Q00537+Q8ND76); assay: Inhibition of human CDK17/cyclinY assessed as residual activity at 10 uM using PKSPKARKKL as substrate measured after 120 mins in presence of [gamma33P]ATP by scintillation counting method; format: protein-complex assay
Sequence of CDK17/Cyclin-Y (Homo sapiens) (Q00537 whole entry, the tested form may be a part): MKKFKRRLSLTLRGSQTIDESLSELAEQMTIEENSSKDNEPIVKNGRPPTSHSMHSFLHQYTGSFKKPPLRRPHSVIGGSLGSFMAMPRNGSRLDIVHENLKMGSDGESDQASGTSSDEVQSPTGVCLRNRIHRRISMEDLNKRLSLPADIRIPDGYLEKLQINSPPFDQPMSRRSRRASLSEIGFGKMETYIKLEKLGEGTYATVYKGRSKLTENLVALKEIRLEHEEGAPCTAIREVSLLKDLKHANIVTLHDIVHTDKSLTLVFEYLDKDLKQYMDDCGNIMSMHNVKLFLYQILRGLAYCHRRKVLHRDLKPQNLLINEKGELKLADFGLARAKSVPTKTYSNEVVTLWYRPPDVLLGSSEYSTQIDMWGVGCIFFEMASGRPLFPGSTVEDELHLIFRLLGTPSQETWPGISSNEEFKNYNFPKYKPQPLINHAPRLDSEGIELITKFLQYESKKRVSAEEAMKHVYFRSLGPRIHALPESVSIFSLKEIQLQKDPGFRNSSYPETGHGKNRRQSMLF
Sequence of CDK17/Cyclin-Y (Homo sapiens) (Q8ND76 2-341 partner limits assumed): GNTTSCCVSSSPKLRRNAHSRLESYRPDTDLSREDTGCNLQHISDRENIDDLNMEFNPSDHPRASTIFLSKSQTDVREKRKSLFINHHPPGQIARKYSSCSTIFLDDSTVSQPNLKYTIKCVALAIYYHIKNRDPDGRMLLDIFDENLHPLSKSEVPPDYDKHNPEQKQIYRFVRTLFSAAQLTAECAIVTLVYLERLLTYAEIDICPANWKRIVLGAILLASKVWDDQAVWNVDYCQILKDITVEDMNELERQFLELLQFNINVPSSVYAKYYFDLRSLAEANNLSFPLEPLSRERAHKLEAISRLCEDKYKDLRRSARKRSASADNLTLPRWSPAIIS

[6] = test system: Discoidin domain-containing receptor 2 (Homo sapiens), Q16832 [UNDEFINED MUTATION]; assay: Inhibition of recombinant human DDR2 S642A mutant (467 to end residues) assessed as residual activity at 10 uM using KKSRGDYMTMQIG as substrate measured after 40 mins in presence of [gamma33P]ATP by scintillation counting method
[7] = target: Testis-specific serine/threonine-protein kinase 4 (Homo sapiens) (UniProt Q6SA08); assay: Inhibition of recombinant full-length human TSSK4 assessed as residual activity at 10 uM using KKLNRTLSFAEPG as substrate measured after 40 mins in presence of [gamma33P]ATP by scintillation counting method
HCT-116 [8] = assay: Induction of apoptosis in human HCT116 cells assessed as early apoptotic cells at 50 nM measured after 48 hrs by Annexin V-FITC/propidium iodide staining-based flow cytometry (reference value: 0.418%); format: functional
[9] = target: Tyrosine-protein kinase Lyn (Homo sapiens) (UniProt P07948); assay: Inhibition of recombinant full-length human Lyn assessed as residual activity at 10 uM using poly(Glu, Tyr) 4:1 as substrate measured after 40 mins in presence of [gamma33P]ATP by scintillation counting method
Sequence of Tyrosine-protein kinase Lyn (Homo sapiens) (P07948 2-512 limits assumed): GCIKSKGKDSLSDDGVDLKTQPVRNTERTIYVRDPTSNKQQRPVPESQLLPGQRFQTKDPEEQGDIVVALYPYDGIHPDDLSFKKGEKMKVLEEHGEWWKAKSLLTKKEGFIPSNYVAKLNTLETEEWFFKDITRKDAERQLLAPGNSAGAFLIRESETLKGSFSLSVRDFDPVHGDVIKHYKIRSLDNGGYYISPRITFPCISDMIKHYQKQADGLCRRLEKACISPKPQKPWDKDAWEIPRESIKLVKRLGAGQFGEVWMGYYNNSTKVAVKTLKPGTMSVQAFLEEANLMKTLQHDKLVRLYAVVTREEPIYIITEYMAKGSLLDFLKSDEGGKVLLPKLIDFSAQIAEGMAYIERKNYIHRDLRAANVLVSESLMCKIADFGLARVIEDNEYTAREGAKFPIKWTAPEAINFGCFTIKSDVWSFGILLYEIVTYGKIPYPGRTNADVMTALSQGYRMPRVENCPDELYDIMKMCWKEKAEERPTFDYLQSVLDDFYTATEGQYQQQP

[10] = target: Protein kinase C delta type (Homo sapiens) (UniProt Q05655); assay: Inhibition of recombinant human PKCdelta (2 to end residues) assessed as residual activity at 10 uM using ERMRPRKRQGSVRRRV as substrate measured after 40 mins in presence of [gamma33P]ATP by scintillation counting method
[11] = target: Hepatocyte growth factor receptor (Homo sapiens) (UniProt P08581); assay: Inhibition of recombinant human MET A1209G/V1290L mutant (974 to end residues) assessed as residual activity at 10 uM using KKKGQEEEYVFIE as substrate measured after 40 mins in presence of [gamma33P]ATP by scintillation counting method
[12] = target: cGMP-dependent protein kinase 2 (Homo sapiens) (UniProt Q13237); assay: Inhibition of recombinant full-length human PRKG2 assessed as residual activity at 10 uM using KKLRRTLSFAEPG as substrate measured after 40 mins in presence of [gamma33P]ATP by scintillation counting method
[13] = target: Macrophage colony-stimulating factor 1 receptor (Homo sapiens) (UniProt P07333); assay: Inhibition of recombinant human FMS (538 to end residues) assessed as residual activity at 10 uM using KKKSPGEYVNIEFG as substrate measured after 40 mins in presence of [gamma33P]ATP by scintillation counting method
Sequence of Macrophage colony-stimulating factor 1 receptor (Homo sapiens) (P07333 whole entry, the tested form may be a part, canonical isoform): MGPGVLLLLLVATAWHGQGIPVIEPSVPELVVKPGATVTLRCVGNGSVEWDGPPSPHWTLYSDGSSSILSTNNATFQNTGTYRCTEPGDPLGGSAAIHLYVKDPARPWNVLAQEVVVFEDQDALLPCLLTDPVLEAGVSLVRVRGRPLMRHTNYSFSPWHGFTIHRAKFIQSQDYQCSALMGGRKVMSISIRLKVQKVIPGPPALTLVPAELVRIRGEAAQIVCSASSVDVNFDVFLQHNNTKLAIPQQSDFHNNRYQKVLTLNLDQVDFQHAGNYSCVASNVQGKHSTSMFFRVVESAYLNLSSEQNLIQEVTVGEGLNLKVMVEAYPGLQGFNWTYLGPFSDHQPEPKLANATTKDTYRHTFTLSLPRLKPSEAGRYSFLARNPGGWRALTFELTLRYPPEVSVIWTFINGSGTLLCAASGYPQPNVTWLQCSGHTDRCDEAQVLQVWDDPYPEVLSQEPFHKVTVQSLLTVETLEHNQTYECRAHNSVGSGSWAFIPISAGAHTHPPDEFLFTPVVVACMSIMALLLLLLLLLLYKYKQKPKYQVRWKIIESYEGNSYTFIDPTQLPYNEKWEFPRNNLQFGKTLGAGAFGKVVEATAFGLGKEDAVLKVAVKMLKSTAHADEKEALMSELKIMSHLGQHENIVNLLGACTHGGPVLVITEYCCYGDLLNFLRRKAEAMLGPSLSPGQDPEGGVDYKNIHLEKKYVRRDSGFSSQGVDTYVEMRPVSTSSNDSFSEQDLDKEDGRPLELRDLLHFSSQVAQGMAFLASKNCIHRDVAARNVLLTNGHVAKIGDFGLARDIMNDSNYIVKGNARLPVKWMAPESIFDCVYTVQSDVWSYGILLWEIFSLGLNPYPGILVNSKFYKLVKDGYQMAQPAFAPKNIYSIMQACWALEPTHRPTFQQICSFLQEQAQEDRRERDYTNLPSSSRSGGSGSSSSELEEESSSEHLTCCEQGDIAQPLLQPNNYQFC

[14] = test system: Phosphorylase b kinase gamma catalytic chain, liver/testis isoform (Homo sapiens), P15735 [F290L]; assay: Inhibition of recombinant human PhKgamma2 F290L mutant (1 to 301 residues) assessed as residual activity at 10 uM using KKLNRTLSFAEPG as substrate measured after 40 mins in presence of [gamma33P]ATP by scintillation counting method
[15] = target: Dual specificity protein kinase CLK4 (Homo sapiens) (UniProt Q9HAZ1); assay: Inhibition of recombinant human CLK4 (128 to end residues) assessed as residual activity at 10 uM using YRRAAVPPSPSLSRHSSPHQS(p)EDEEE as substrate measured after 40 mins in presence of [gamma33P]ATP by scintillation counting method
Sequence of Dual specificity protein kinase CLK4 (Homo sapiens) (Q9HAZ1 whole entry, looked up): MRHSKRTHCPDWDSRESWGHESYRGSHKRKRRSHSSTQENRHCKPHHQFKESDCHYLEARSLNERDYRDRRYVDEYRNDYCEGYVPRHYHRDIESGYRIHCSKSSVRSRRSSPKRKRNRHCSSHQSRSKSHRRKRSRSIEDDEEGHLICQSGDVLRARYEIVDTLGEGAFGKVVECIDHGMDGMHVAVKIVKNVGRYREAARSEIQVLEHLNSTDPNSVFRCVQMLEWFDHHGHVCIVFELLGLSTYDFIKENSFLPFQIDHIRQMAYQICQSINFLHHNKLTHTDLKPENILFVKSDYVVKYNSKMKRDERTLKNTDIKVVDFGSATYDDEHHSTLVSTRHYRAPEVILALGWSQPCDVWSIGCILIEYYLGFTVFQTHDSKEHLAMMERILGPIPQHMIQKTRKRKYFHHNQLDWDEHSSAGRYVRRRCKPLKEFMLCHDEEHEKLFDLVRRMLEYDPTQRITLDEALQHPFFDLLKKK

[16] = target: BMP-2-inducible protein kinase (Homo sapiens) (UniProt Q9NSY1); assay: Inhibition of recombinant human BIKepsilon assessed as residual activity at 10 uM using peptide substrate measured after 120 mins in presence of [gamma33P]ATP by scintillation counting method
Sequence of BMP-2-inducible protein kinase (Homo sapiens) (Q9NSY1 whole entry, looked up): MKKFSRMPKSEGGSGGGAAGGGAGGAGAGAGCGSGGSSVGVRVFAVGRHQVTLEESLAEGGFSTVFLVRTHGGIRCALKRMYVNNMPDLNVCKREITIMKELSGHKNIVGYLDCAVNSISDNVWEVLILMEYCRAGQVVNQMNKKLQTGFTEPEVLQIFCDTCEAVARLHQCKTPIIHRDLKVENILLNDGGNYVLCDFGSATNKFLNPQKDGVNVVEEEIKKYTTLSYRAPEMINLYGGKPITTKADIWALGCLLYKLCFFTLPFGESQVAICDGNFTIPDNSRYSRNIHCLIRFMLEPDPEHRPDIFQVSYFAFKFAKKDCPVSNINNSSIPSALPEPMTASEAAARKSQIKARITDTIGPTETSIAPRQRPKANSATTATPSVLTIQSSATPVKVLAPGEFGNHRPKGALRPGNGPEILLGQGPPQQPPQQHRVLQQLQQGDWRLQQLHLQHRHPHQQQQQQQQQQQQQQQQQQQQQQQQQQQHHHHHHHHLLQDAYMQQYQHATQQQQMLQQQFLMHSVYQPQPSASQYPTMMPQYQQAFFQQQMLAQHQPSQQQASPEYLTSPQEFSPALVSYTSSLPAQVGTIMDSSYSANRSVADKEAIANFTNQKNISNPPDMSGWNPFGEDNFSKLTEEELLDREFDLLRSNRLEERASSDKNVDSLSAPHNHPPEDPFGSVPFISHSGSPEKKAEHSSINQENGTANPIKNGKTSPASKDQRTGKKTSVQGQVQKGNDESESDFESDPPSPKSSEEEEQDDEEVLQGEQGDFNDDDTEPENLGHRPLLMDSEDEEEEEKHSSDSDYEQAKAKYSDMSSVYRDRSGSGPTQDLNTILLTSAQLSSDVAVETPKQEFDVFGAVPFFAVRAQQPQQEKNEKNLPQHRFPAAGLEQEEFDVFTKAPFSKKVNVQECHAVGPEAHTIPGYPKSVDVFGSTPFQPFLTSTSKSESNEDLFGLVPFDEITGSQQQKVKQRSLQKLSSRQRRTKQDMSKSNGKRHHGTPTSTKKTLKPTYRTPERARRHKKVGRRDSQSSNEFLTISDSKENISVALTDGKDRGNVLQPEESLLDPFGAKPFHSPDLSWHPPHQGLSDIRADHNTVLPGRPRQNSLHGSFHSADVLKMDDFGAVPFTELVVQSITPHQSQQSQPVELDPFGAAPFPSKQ

[17] = target: Serine/threonine-protein kinase 38-like (Homo sapiens) (UniProt Q9Y2H1); assay: Inhibition of recombinant human NDR2 (83 to end residues) assessed as residual activity at 10 uM using RSRSRSRSRSRSRSR as substrate measured after 40 mins in presence of [gamma33P]ATP by scintillation counting method
Sequence of Serine/threonine-protein kinase 38-like (Homo sapiens) (Q9Y2H1 2-464 limits assumed): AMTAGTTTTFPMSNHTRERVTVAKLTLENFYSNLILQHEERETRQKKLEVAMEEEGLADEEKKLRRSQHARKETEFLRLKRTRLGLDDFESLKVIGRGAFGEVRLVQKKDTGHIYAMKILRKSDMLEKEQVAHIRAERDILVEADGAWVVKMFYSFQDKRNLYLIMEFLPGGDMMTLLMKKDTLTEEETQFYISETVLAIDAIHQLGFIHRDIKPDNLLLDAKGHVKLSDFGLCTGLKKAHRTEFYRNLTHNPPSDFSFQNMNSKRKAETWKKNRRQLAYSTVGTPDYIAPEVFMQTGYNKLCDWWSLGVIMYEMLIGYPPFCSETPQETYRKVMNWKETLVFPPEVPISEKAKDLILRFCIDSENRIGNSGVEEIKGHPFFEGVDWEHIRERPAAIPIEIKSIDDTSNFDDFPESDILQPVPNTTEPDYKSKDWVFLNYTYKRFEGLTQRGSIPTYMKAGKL

[18] = target: Rhodopsin kinase GRK1 (Homo sapiens) (UniProt Q15835); assay: Inhibition of recombinant full-length human GRK1 assessed as residual activity at 10 uM using KKKKERLLDDRHDSGLDSMKDEE as substrate measured after 40 mins in presence of [gamma33P]ATP by scintillation counting method
[19] = target: Activin receptor type-1-like (Homo sapiens) (UniProt P37023); assay: Inhibition of recombinant human ALK1 (142 to end residues) assessed as residual activity at 10 uM using casein as substrate measured after 40 mins in presence of [gamma33P]ATP by scintillation counting method
[20] = target: Serine/threonine-protein kinase 32B (Homo sapiens) (UniProt Q9NY57); assay: Inhibition of recombinant full-length human STK32B assessed as residual activity at 10 uM using casein as substrate measured after 120 mins in presence of [gamma33P]ATP by scintillation counting method
A549 = assay: cells; settings: Homo sapiens, A549, 72 h
Description: Antiproliferative activity against human A549 cells after 72 hrs by MTT assay

[21] = target: Serine/threonine-protein kinase 17B (Homo sapiens) (UniProt O94768); assay: Inhibition of recombinant full-length human DRAK2 assessed as residual activity at 10 uM using KKRPQRRYSNVF as substrate measured after 120 mins in presence of [gamma33P]ATP by scintillation counting method
[22] = target: Serine/threonine-protein kinase Nek6 (Homo sapiens) (UniProt Q9HC98); assay: Inhibition of recombinant human NEK6 (2 to end residues) assessed as residual activity at 10 uM using FLAKSFGSPNRAYKK as substrate measured after 40 mins in presence of [gamma33P]ATP by scintillation counting method

SMILES: Cc1cc(C)c(CNc2nc(Cl)nc3c2ncn3C2CCCC2)c(=O)[nH]1
- Activity (SW-620): Active
- Activity [1]: 104%
- Activity [2]: 102%
- Activity [3]: 95.5%
- Activity (HCT-116 [4]): Active
- Activity [5]: 102%
- Activity [6]: 97%
- Activity [7]: 138%
- Activity (HCT-116 [8]): 3.57%
- Activity [9]: 119%
- Activity [10]: 111%
- Activity [11]: 80%
- Activity [12]: 98%
- Activity [13]: 102%
- Activity [14]: 92%
- Activity [15]: 98.5%
- Activity [16]: 83%
- Activity [17]: 108%
- Activity [18]: 90.5%
- Activity [19]: 98%
- Activity [20]: 98%
- IC50 (A549): 100 nM
- Activity [21]: 101%
- Activity [22]: 108%
